What was measured:
[1] = system: common lambsquarters (Ch); assay: Test Example 3: herbicidal effects by upland field foliage treatment; format: in vivo; design: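 grade of growth control; 5 = at least 90%; 4 = 70 to 90%; 3 = 50 to 70%; 2 = 30 to 50%; 1 = 10 to 30%; 0 = under 10%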; details: 100 g of the active ingredient per 10 ares, evaluated on the 14th day after treatment
In short: (§1)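 Scores reflect herbicidal effect graded by standards on the 14th day after foliage treatment of weeds grown 2 weeks in a greenhouse.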

rice flatsedge (Ci) [2] = assay: as above; format: in vivo; design: scale not given here; details: 100 g of the active ingredient per 10 ares, evaluated on the 14th day after treatment
In short: as §1

pale smartweed (Po) [3] = assay: as above; format: in vivo; design: scale not given here; details: 100 g of the active ingredient per 10 ares, evaluated on the 14th day after treatment
In short: as §1

barnyardgrass (Ec) [4] = assay: as above; format: in vivo; design: scale not given here; details: 100 g of the active ingredient per 10 ares, evaluated on the 14th day after treatment
In short: as §1

Diaitaria ciliaris (Di) = assay: as above; format: in vivo; design: scale not given here; details: 100 g of the active ingredient per 10 ares, evaluated on the 14th day after treatment
In short: as §1

slender amaranth (Am) [5] = assay: as above; format: in vivo; design: scale not given here; details: 100 g of the active ingredient per 10 ares, evaluated on the 14th day after treatment
In short: as §1

Digitaria ciliaris (Di) = assay: Test Example 2: herbicidal effects by upland field soil treatment; format: in vivo; details: 100 g of the active ingredient per 10 ares, 21st day after the application, index 0-5 of Table 47;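 note: grade of growth control; 5 = at least 90%; 4 = 70 to 90%; 3 = 50 to 70%; 2 = 30 to 50%; 1 = 10 to 30%; 0 = under 10%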
From the text: (§2) (Test on Herbicidal Effects by Upland Field Soil Treatment)

[6] = system: common lambsquarters (Ch); assay: as above; format: in vivo; details: 100 g of the active ingredient per 10 ares, 21st day after the application, index 0-5 of Table 47
From the text: as §2

rice flatsedge (Ci) [7] = assay: as above; format: in vivo; details: 100 g of the active ingredient per 10 ares, 21st day after the application, index 0-5 of Table 47
From the text: as §2

pale smartweed (Po) [8] = assay: as above; format: in vivo; details: 100 g of the active ingredient per 10 ares, 21st day after the application, index 0-5 of Table 47
From the text: as §2

barnyardgrass (Ec) [9] = assay: as above; format: in vivo; details: 100 g of the active ingredient per 10 ares, 21st day after the application, index 0-5 of Table 47
From the text: as §2

slender amaranth (Am) [10] = assay: as above; format: in vivo; details: 100 g of the active ingredient per 10 ares, 21st day after the application, index 0-5 of Table 47
From the text: as §2

corn (Ze) [11] = assay: Test Example 11: crop plant selectivity by upland field foliage treatment (corn), phytotoxicity; details: upland field foliage treatment, dose 1.6 g ai/10a, 14th day after treatment
Method: (§3) (Test on Crop Plant Selectivity by Upland Field Foliage Treatment)
(§4) In a plastic pot (surface area: 600 cm^2) filled with sand, corn (Ze), pale smartweed (Po), slender amaranth (Am), common lambsquarters (Ch) and China jute (Ab) were sown and cultured in a green house for 2 weeks. […] The plants were then cultured in a green house, and the evaluation of the herbicidal effects and phytotoxicity was conducted on the 14th day after the treatment in accordance with the standards as identified in Table 47.

China jute (Ab) [12] = assay: Test Example 11: crop plant selectivity by upland field foliage treatment (corn), herbicidal effects; format: in vivo; design: scale not given here; details: upland field foliage treatment (corn test), dose 1.6 g ai/10a, 14th day after treatment
Method: as §3, §4

[13] = system: common lambsquarters (Ch); assay: as above; format: in vivo; design: scale not given here; details: upland field foliage treatment (corn test), dose 1.6 g ai/10a, 14th day after treatment
Method: as §3, §4

pale smartweed (Po) [14] = assay: as above; format: in vivo; design: scale not given here; details: upland field foliage treatment (corn test), dose 1.6 g ai/10a, 14th day after treatment
Method: as §3, §4

slender amaranth (Am) [15] = assay: as above; format: in vivo; design: scale not given here; details: upland field foliage treatment (corn test), dose 1.6 g ai/10a, 14th day after treatment
Method: as §3, §4

monochoria (Mo) = assay: Test Example 1: herbicidal effects by paddy field soil treatment; format: in vivo; details: 100 g of the active ingredient per 10 ares, 21st day after the application, index 0-5 of Table 47;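 note: grade of growth control; 5 = at least 90%; 4 = 70 to 90%; 3 = 50 to 70%; 2 = 30 to 50%; 1 = 10 to 30%; 0 = under 10%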
In short: (§5)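 Flooded paddy-soil pots (3 cm water) sown after puddling/leveling; treatment 100 g a.i./10 ares; greenhouse culture; herbicidal effect rated visually on a scoring scale at 21 d post-application.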

barnyardgrass (Ec) [16] = assay: as above; format: in vivo; details: 100 g of the active ingredient per 10 ares, 21st day after the application, index 0-5 of Table 47
In short: as §5

bulrush (Sc) = assay: as above; format: in vivo; details: 100 g of the active ingredient per 10 ares, 21st day after the application, index 0-5 of Table 47;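 note: grade of growth control; 5 = at least 90%; 4 = 70 to 90%; 3 = 50 to 70%; 2 = 30 to 50%; 1 = 10 to 30%; 0 = under 10%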
In short: as §5

green foxtail (Se) [17] = assay: Test Example 5: crop plant selectivity by upland field soil treatment (wheat), herbicidal effects; format: in vivo; design: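 grade of growth control; 5 = at least 90%; 4 = 70 to 90%; 3 = 50 to 70%; 2 = 30 to 50%; 1 = 10 to 30%; 0 = under 10%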; details: dose 6.3 g ai/10a, 21st day after application
In short: (§6)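 Upland soil treatment test: crop and weed species sown in sand-filled pots and covered with soil before compound application. Visual scoring of weed control and wheat injury 21 days post-application, plants kept in a greenhouse, using a standard rating scale.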

China jute (Ab) [18] = assay: as above; format: in vivo; design: scale not given here; details: dose 6.3 g ai/10a, 21st day after application
In short: as §6

[19] = system: common lambsquarters (Ch); assay: as above; format: in vivo; design: scale not given here; details: dose 6.3 g ai/10a, 21st day after application
In short: as §6

pale smartweed (Po) [20] = assay: as above; format: in vivo; design: scale not given here; details: dose 6.3 g ai/10a, 21st day after application
In short: as §6

slender amaranth (Am) [21] = assay: as above; format: in vivo; design: scale not given here; details: dose 6.3 g ai/10a, 21st day after application
In short: as §6

cotton (Go) = assay: Test Example 4: crop plant selectivity by upland field soil treatment (cotton), phytotoxicity; format: in vivo; design: scale not given here; details: dose 6.3 g ai/10 a, evaluated 21st day after application
In short: (§7)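 Weeds and cotton, sown in sand and topped with soil, received a soil-applied treatment. Evaluation after three weeks in a greenhouse followed a standard rating scale.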

green foxtail (Se) [22] = assay: Test Example 7: crop plant selectivity by upland field soil treatment (corn), herbicidal effects; format: in vivo; design: scale not given here; details: dose 6.3 g ai/10a, 21st day after application
In short: (§8)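 Greenhouse pot test: scores for herbicidal effect and corn phytotoxicity were given 21 days after soil treatment, against set rating standards. Crop and weed species (foxtail, smartweed, amaranth, lambsquarters, China jute) were sown together in sand and covered with soil beforehand.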

China jute (Ab) [23] = assay: as above; format: in vivo; design: scale not given here; details: dose 6.3 g ai/10a, 21st day after application
In short: as §8

[24] = system: common lambsquarters (Ch); assay: as above; format: in vivo; design: scale not given here; details: dose 6.3 g ai/10a, 21st day after application
In short: as §8

pale smartweed (Po) [25] = assay: as above; format: in vivo; design: scale not given here; details: dose 6.3 g ai/10a, 21st day after application
In short: as §8

slender amaranth (Am) [26] = assay: as above; format: in vivo; design: scale not given here; details: dose 6.3 g ai/10a, 21st day after application
In short: as §8

green foxtail (Se) [27] = assay: Test Example 6: crop plant selectivity by upland field soil treatment (soybean), herbicidal effects; format: in vivo; design: scale not given here; details: dose 6.3 g ai/10a, 21st day after application
In short: (§9)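 Pre-emergence soil treatment; sand-filled pots, seeds sown then soil-covered; greenhouse culture; visual rating of weed control and soybean injury on day 21 post-application per standard scale.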

China jute (Ab) [28] = assay: as above; format: in vivo; design: scale not given here; details: dose 6.3 g ai/10a, 21st day after application
In short: as §9

[29] = system: common lambsquarters (Ch); assay: as above; format: in vivo; design: scale not given here; details: dose 6.3 g ai/10a, 21st day after application
In short: as §9

pale smartweed (Po) [30] = assay: as above; format: in vivo; design: scale not given here; details: dose 6.3 g ai/10a, 21st day after application
In short: as §9

slender amaranth (Am) [31] = assay: as above; format: in vivo; design: scale not given here; details: dose 6.3 g ai/10a, 21st day after application
In short: as §9

corn (Ze) [32] = assay: Test Example 7: crop plant selectivity by upland field soil treatment (corn), phytotoxicity; format: in vivo; design: scale not given here; details: dose 6.3 g ai/10a, 21st day after application
In short: as §8

soybean (Gl) = assay: Test Example 6: crop plant selectivity by upland field soil treatment (soybean), phytotoxicity; format: in vivo; design: scale not given here; details: dose 6.3 g ai/10a, 21st day after application
In short: as §9

wheat (Tr) = assay: Test Example 5: crop plant selectivity by upland field soil treatment (wheat), phytotoxicity; format: in vivo; design: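 grade of crop injury; 5 = at least 90%; 4 = 70 to 90%; 3 = 50 to 70%; 2 = 30 to 50%; 1 = 10 to 30%; 0 = under 10%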; details: dose 6.3 g ai/10a, 21st day after application
In short: as §6

green foxtail (Se) [33] = assay: Test Example 4: crop plant selectivity by upland field soil treatment (cotton), herbicidal effects; format: in vivo; design: scale not given here; details: dose 6.3 g ai/10 a, evaluated 21st day after application
In short: as §7

China jute (Ab) [34] = assay: as above; format: in vivo; design: scale not given here; details: dose 6.3 g ai/10 a, evaluated 21st day after application
In short: as §7

[35] = system: common lambsquarters (Ch); assay: as above; format: in vivo; design: scale not given here; details: dose 6.3 g ai/10 a, evaluated 21st day after application
In short: as §7

pale smartweed (Po) [36] = assay: as above; format: in vivo; design: scale not given here; details: dose 6.3 g ai/10 a, evaluated 21st day after application
In short: as §7

slender amaranth (Am) [37] = assay: as above; format: in vivo; design: scale not given here; details: dose 6.3 g ai/10 a, evaluated 21st day after application
In short: as §7

CC(C)OC(=O)c1cc(-c2ccc(C(F)(F)F)n(C)c2=O)c(F)cc1Cl [Compound No. 1-66, isopropyl 5-(1-methyl-6-trifluoromethyl-2(1H)-pyridon-3-yl)-2-chloro-4-fluorobenzoate]
2: Phytotoxicity Ze (corn (Ze) [11])
5: Herbicidal effects Ch [1] | Herbicidal effects Ci (rice flatsedge (Ci) [2]) | Herbicidal effects Po (pale smartweed (Po) [3]) | Herbicidal effects Ec (barnyardgrass (Ec) [4]) | Herbicidal effects Di (Diaitaria ciliaris (Di)) | Herbicidal effects Am (slender amaranth (Am) [5]) | Herbicidal effects Di (Digitaria ciliaris (Di)) | Herbicidal effects Ch [6] | Herbicidal effects Ci (rice flatsedge (Ci) [7]) | Herbicidal effects Po (pale smartweed (Po) [8]) | Herbicidal effects Ec (barnyardgrass (Ec) [9]) | Herbicidal effects Am (slender amaranth (Am) [10]) | Herbicidal effects Ab (China jute (Ab) [12]) | Herbicidal effects Ch [13] | Herbicidal effects Po (pale smartweed (Po) [14]) | Herbicidal effects Am (slender amaranth (Am) [15]) | Herbicidal effects Mo (monochoria (Mo)) | Herbicidal effects Ec (barnyardgrass (Ec) [16]) | Herbicidal effects Sc (bulrush (Sc))

CSc1cc(-c2ccc(C(F)(F)F)n(C)c2=O)c(F)cc1Cl [Compound No. 1-87, 3-(4-chloro-2-fluoro-5-methylthiophenyl)-1-methyl-6-trifluoromethyl-2(1H)-pyridone]
1: Phytotoxicity Go (cotton (Go)) | Phytotoxicity Ze (corn (Ze) [32]) | Phytotoxicity Gl (soybean (Gl)) | Phytotoxicity Tr (wheat (Tr))
5: Herbicidal effects Se (green foxtail (Se) [17]) | Herbicidal effects Ab (China jute (Ab) [18]) | Herbicidal effects Ch [19] | Herbicidal effects Po (pale smartweed (Po) [20]) | Herbicidal effects Am (slender amaranth (Am) [21]) | Herbicidal effects Ch [1] | Herbicidal effects Ci (rice flatsedge (Ci) [2]) | Herbicidal effects Po (pale smartweed (Po) [3]) | Herbicidal effects Ec (barnyardgrass (Ec) [4]) | Herbicidal effects Di (Diaitaria ciliaris (Di)) | Herbicidal effects Am (slender amaranth (Am) [5]) | Herbicidal effects Se (green foxtail (Se) [22]) | Herbicidal effects Ab (China jute (Ab) [23]) | Herbicidal effects Ch [24] | Herbicidal effects Po (pale smartweed (Po) [25]) | Herbicidal effects Am (slender amaranth (Am) [26]) | Herbicidal effects Di (Digitaria ciliaris (Di)) | Herbicidal effects Ch [6] | Herbicidal effects Ci (rice flatsedge (Ci) [7]) | Herbicidal effects Po (pale smartweed (Po) [8]) | Herbicidal effects Ec (barnyardgrass (Ec) [9]) | Herbicidal effects Am (slender amaranth (Am) [10]) | Herbicidal effects Se (green foxtail (Se) [27]) | Herbicidal effects Ab (China jute (Ab) [28]) | Herbicidal effects Ch [29] | Herbicidal effects Po (pale smartweed (Po) [30]) | Herbicidal effects Am (slender amaranth (Am) [31]) | Herbicidal effects Se (green foxtail (Se) [33]) | Herbicidal effects Ab (China jute (Ab) [34]) | Herbicidal effects Ch [35] | Herbicidal effects Po (pale smartweed (Po) [36]) | Herbicidal effects Am (slender amaranth (Am) [37]) | Herbicidal effects Mo (monochoria (Mo)) | Herbicidal effects Ec (barnyardgrass (Ec) [16]) | Herbicidal effects Sc (bulrush (Sc))

— US6472348B1, “Pyridone derivatives and herbicides” (Kumiai Chemical Industry Co., Ltd., priority 1996, dated 2002)
